Data reported in patent publication US20090258869A1, “METHODS AND COMPOUNDS FOR TREATMENT OR PREVENTION OF SUBSTANCE-RELATED DISORDERS” (The Regents of the University of California, priority 2008, published 2009).

Columns and labels:
[1] = general statement, no test described; cited from earlier work
[2] = system: animals; details: literature; cited from earlier work
[3] = system: Tyrosine hydroxylase (TH); experiment: TH protein levels (immunoreactivity) by Western blot in ethanol-treated SH-SY5Y cells; type: cell-based, human
Protocol: (§1) Cell culture. […] MEM nonessential amino acid solution (Invitrogen).
(§2) Treatments. Cells were treated with ethanol for 12-48 h in low serum media by replacing the media with ethanol every 12 h. […] PI-PLC was incubated with cells at a concentration of 0.3 u/ml for 1 h as described previously (1). Anti-GDNF neutralizing antibodies were dissolved in PBS and were used at a concentration of 10 μg/ml.
(§3) Western blot and immunoprecipitation. Cells were collected and lysed in RIPA buffer plus protease and phosphatase inhibitor cocktails for Western blot and immunoprecipitation as described previously (1,30). Briefly, 15 μg of each homogenate was subjected to an SDS-PAGE gel and blotted on a nitrocellulose membrane for Western blot analysis with anti-TH antibody or other primary antibodies, followed by reprobing with anti-Actin antibody. Alternatively, 500 μg of each homogenate was incubated with 5 μg of anti-TH, anti-HSP90 or anti-Akt antibodies in TBS-T buffer overnight at 4° C.1 followed by a 2-h incubation with Protein G agarose beads. Immunoprecipitates were separated on an SDS-PAGE gel for Western blot analysis.
(§4) Quantification and statistical analysis.

[4] = system: Tyrosine hydroxylase (TH); experiment: Pulse-chase analysis of 35S-labeled TH protein stability in SH-SY5Y cells; type: cell-based, human
Protocol: as §1
Pulse-chase analysis. 24 h after ethanol treatment, cells were labeled following a pulse-chase procedure as described previously (31) with modifications. Briefly, cells were incubated with methionine/cystine-free DMEM (Invitrogen) containing 1% dialyzed FBS for 1 h and then labeled in the Met/Cysfree medium containing 25 μCi of Amersham Redivue Pro-Mix L-[35S] in vitro Cell Labeling Mix per ml for 3 h. Dialysis of FBS was performed against the Met/Cys-free medium overnight. After labeling, cells were washed twice with the normal medium and chased in the normal medium without ethanol for 2-8 h before homogenizing as described above. Homogenates were centrifuged and protein concentrations of the supernatants were determined. An equal amount of protein from each sample was immunoprecipitated with anti-TH antibody and separated by electrophoresis on an 8% SDS gel. Autoradiography was performed by exposure of the dried gels to Amersham Storage Phosphor Screen and visualization of radioactive signals using the Typhoon 9410 Variable Mode Imager (GE Healthcare).
as §4

[5] = system: Akt kinase and Hsp90 association; details: 100 mM ethanol 24 h
[6] = system: TH-Hsp90 association; experiment: Co-immunoprecipitation of TH with Hsp90 in SH-SY5Y cells; type: cell-based, human; details: 100 mM ethanol 24 h
Protocol: Treatments. […] PI-PLC was incubated with cells at a concentration of 0.3 u/ml for 1 h as described previously (1). Anti-GDNF neutralizing antibodies were dissolved in PBS and were used at a concentration of 10 μg/ml.

[7] = system: TH mRNA; details: 100 mM ethanol 12 h or 24 h
[8] = system: Hsp90; experiment: Hsp90 protein levels by Western blot in SH-SY5Y cells; type: cell-based, human
Protocol: as §1, §2, §3, §4

[9] = system: GDNF gene expression; details: in vitro in SH-SY5Y cells and in the midbrain region containing the VTA in vivo; previously reported; cited from earlier work
[10] = 100 mM ethanol 24 h, 25 ng/ml GDNF added for the last 12 h

CO[C@H]1/C=C\C=C(/C)C(=O)NC2=CC(=O)C(NCCN(C)C)=C(C[C@@H](C)C[C@H](OC)[C@H](O)[C@@H](C)/C=C(\C)[C@@H]1OC(N)=O)C2=O [17-DMAG, 17-(2 dimethylaminoethyl)amino-17-desmethoxy-geldanamycin]
water solubility [1]: more soluble

COC1=C2C[C@@H](C)C[C@H](OC)[C@H](O)[C@@H](C)/C=C(\C)[C@H](OC(N)=O)[C@@H](OC)/C=C\C=C(/C)C(=O)NC(=CC1=O)C2=O [GA, Geldanamycin]
water solubility [1]: less than ideal

O=C1CC[C@@]2(O)[C@H]3Cc4ccc(O)c5c4[C@@]2(CCN3CC2CC2)[C@H]1O5 [Naltrexone, naltrexone]
ethanol consumption in animal studies [2]: decrease

C[C@@H]1C[C@@H]([C@H](O)CC2CC(=O)NC(=O)C2)C(=O)[C@@H](C)C1 [cycloheximide, reference compound]
ethanol-mediated increases in TH protein levels ([3]; 100 mM ethanol 24 h, 30 μg/ml CHX for the last 12 h): did not inhibit

CCO [ethanol]
immunoreactivity of TH ([3]; 10 mM ethanol, 24 h): significant increase
duration of ethanol-induced increase in TH protein levels ([3]; 100 mM ethanol 24 h, detected 24 h after ethanol washout): long-lasting
TH protein levels ([3]; 100 mM ethanol, after 24 h and 48 h of exposure): increase
increase in TH protein levels, dependence on ethanol concentration ([3]; different concentrations of ethanol, 24 h): dose-dependent manner
quantity of 35S-labeled TH protein at all points in the chase time course ([4]; 100 mM ethanol 24 h before pulse-chase, compared to control): increase
association between Akt kinase and Hsp90 [5]: did not alter
association of TH with Hsp90 [6]: induced
TH mRNA [7]: did not increase
protein level of Hsp90 ([8]; 100 mM ethanol alone, 12 h or 24 h): did not alter

ibogaine [reference compound]
ethanol induced increases in TH levels ([3]; 100 mM ethanol 24 h, 10 μM ibogaine added for the last 12 h): inhibited
GDNF gene expression [9]: increases

B1: GDNF: Recombinant human GDNF polypeptide (glial cell line derived neurotropic factor) from R&D Systems (protein, UniProt P39905 78-211, looked up)
Glial cell line-derived …: SPDKQMAVLPRRERNRQAAAANPENSRGKGRRGQRGKNRGCVLTAIHLNVTDLGLGYETKEELIFRYCSGSCDAAETTYDKILKNLSRNRRLVSDKVGQACCRPIAFDDDLSFLDDNLVYHILRKHSAKRCGCI
ethanol-mediated increase in TH levels [3, 10]: reversed
quantity of 35S-labeled TH at all points on the chase time course [4, 10]: downregulates
ethanol-mediated association of Hsp90 with TH ([6]; 25 ng/ml GDNF added for the last 12 h): reversed
Hsp90 immunoreactivity [8, 10]: not due to alteration
